Measurements published in patent US20230058189A1, “QUINOLIN-4-ONE AND 4(1H)-CINNOLINONE COMPOUNDS AND METHODS OF USING SAME” (Frequency Therapeutics, Inc., priority 2019, published 2023).
Values after ≈ are worked out from the molar mass of the structure shown.

test system: not listed separately; test: Thermodynamic aqueous solubility at pH 7.4; type: physicochemical; conditions: aqueous buffer, thermodynamic from solid, phosphate buffer pH 7.4, 25° C., approximate values, read-out: Concentration (thermodynamic aqueous solubility)
Experimental: The aqueous thermodynamic solubilities of the compounds of the present disclosure were measured at pH 7.4.
Determining suitability for use of a compound, e.g., as a therapeutic agent can include determining the thermodynamic solubility of the compound. An example of this determination follows: Accurately weigh about 1 mg of the powder of each compound into a glass insert vial and phosphate buffer into each vial of a capless Solubility Sample plate with the volume of 1 mL per mg. Next, add one stir stick to each vial and seal with a molded PTDE/SIL 96-Well Plate Cover. Transfer the Solubility Sample plate to an Eppendorf Thermomixer Comfort plate shaker and shake the plate at 25° C. at 1,100 rpm for 24 hours. At the end of the incubation, open the cover and remove the stir sticks using a big magnet and transfer the samples from the Solubility Sample plate into the filter plate. Using the vacuum manifold, all the samples were filtered. An aliquot of 100 μL was transferred from filtrate to a new 96-well plate by addition of 900 μL of a mixture of H2O and acetonitrile containing an internal standard (1:1) (10 fold) and 10 μL of the diluted solution was pipetted into a new 96-well plate by addition of 990 μL of a mixture of H2O and acetonitrile containing internal standard (1:1) (1,000 fold). The dilution factor may be changed according to the solubility value and the LC/MS signal response.
To prepare standards for the assay, accurately weigh about 1 mg of the powder of each compound into a glass insert vial, add DMSO into each vial of the Standard Plate with the volume of 1 mL per mg to obtain the 1 mg/mL STD sample. Aliquots of 10 μL were taken from 1 mg/mL STD sample to a new 96-well plate followed by addition of 990 μL of a mixture of H2O and acetonitrile containing internal standard (1:1) to obtain 10 μg/mL STD and then 10 μL aliquots were taken from 10 μg/mL sample to a new 96-well plate followed by addition of 990 μL of a mixture of H2O and acetonitrile containing internal standard (1:1) to obtain 0.1 μg/mL STD. The concentration of the standard sample may be changed according to the LC/MS signal response.
The samples were analyzed and quantified against the standard of known concentration using LC/MS/MS. The solubility of the test compound was calculated as follows: [Sample]=Area Ratio sample×DF sample×[STD]/Area Ratio STD DF means the dilution factor. Any value of the compounds that is not within the specified limits was rejected and the experiment was repeated.

SMILES | solubility thermodynamic at 24 h [µM]
CCn1cc(C(=O)O)c(=O)c2c(N)c(F)c(NC3CCCCC3)cc21 [Compound I-7] | < 0.12
CCn1cc(C(=O)O)c(=O)c2c(N)c(F)c(NC3CC3)cc21 [Compound I-15] | 2.4 (≈ 0.733 µg/mL)
CCn1cc(C(=O)O)c(=O)c2c(N)c(F)c(Nc3ccccc3)cc21 [Compound I-16] | 1.1 (≈ 0.375 µg/mL)
CCn1cc(C(=O)O)c(=O)c2c(N)c(F)c(NCc3ccccc3)cc21 [Compound I-17] | 0.11 (≈ 0.0391 µg/mL)
CCn1cc(C(=O)O)c(=O)c2c(N)c(F)c(NCCc3ccccc3)cc21 [Compound I-18] | 0.12 (≈ 0.0443 µg/mL)
CCn1cc(C(=O)O)c(=O)c2c(N)c(F)c(NCCCc3ccccc3)cc21 [Compound I-19] | < 0.03
CCn1cc(C(=O)O)c(=O)c2c(N)cc(NCCCc3ccccc3)cc21 [Compound I-57] | < 0.03
CCn1cc(C(=O)O)c(=O)c2c(N)c(F)c(N[C@H]3C[C@H](c4ccccc4)C3)cc21 [Compound I-60] | < 10
CCn1cc(C(=O)O)c(=O)c2c(N)c(F)c(N[C@H]3C[C@@H](c4ccccc4)C3)cc21 [Compound I-61] | < 0.002
CCn1cc(C(N)=O)c(=O)c2c(N)c(F)c(NCCc3ccccc3)cc21 [Compound I-66] | 0.06 (≈ 0.0221 µg/mL)
CCn1cc(C#N)c(=O)c2c(N)c(F)c(NCCc3ccccc3)cc21 [Compound I-67] | 0.23 (≈ 0.0806 µg/mL)
CCn1cc(-c2nnn[nH]2)c(=O)c2c(N)c(F)c(NCCc3ccccc3)cc21 [Compound I-68] | 0.03 (≈ 0.0118 µg/mL)
CCn1cc(C(=O)O)c(=O)c2c(N)c(F)c(NC3CN(c4ccccc4)C3)cc21 [Compound I-69] | < 0.03

test system: not listed separately; test: Caco-2 cell permeability assay; type: in vitro ADME; conditions: human, pH 7.4; Caco-2, Papp (B-A)/Papp (A-B); approximate values
Experimental: A Caco-2 cell permeability assay can be used for in vitro prediction of drug permeability and absorption, an important feature for a compound to be useful for methods described herein. The apparent permeability (Papp) of the compounds of the present disclosure were determined in Caco-2 cells to measure the rate of drug transport per surface area of the cell membrane. Further the efflux ratios of the compounds of the present disclosure were measured in Caco-2 cells to determine the apparent permeability coefficient in basolateral to apical direction with respect to the apparent permeability coefficient in apical to basolateral direction.
50 μL and 25 mL of cell culture medium were added to each well of the Transwell insert and reservoir, respectively. The HTS transwell plates were incubated at 37° C., 5% CO2 for 1 hour before cell seeding. Caco-2 cells were diluted to 6.86×10^5 cells/mL with culture medium and 50 μL of cell suspension were dispensed into the filter well of the 96-well HTS Transwell plate. Cells were cultivated for 14-18 days in a cell culture incubator at 37° C., 5% CO295% relative humidity. Cell culture medium was replaced every other day, beginning no later than 24 hours after initial plating.
Medium was removed from the reservoir and each Transwell insert and replaced with prewarmed fresh culture medium. Transepithelial electrical resistance (TEER) across the monolayer was measured using Millicell Epithelial Volt-Ohm measuring system (Millipore, USA). The Plate was returned to the incubator once the measurement was done. The TEER value was calculated according to the following equation: TEER measurement (ohms)×Area of membrane (cm^2)=TEER value (ohm·cm^2).
To prepare the HBSS (25 mM HEPES, pH 7.4), accurately weigh 5.958 g of HEPES and 0.35 g sodium hydrogen carbonate and add into 900 mL of pure water, then sonicate to dissolve the content. Transfer 100 mL of 10× HBSS into the solution, and place the solution on a stirrer, slowly adjust pH with sodium hydrate to 7.4, following with filtering. Add 6 μL of stock solution (10 mM) of test compound or control compound to 24 μL of DMSO into the same well to obtain 2 mM stock solutions. Transfer 3 μL of 2 mM solution into 597 μL of transport buffer in one 96 well plate to prepare the 10 μM compound working solution. Shake the plate at 1000 rpm for 10 min. The final concentration of DMSO in the incubation system was 0.5%. Metoprolol, erythromycin, and cimetidine were used as control compounds.
Assays can be conducted using Caco-2 cells to assay transport of a compound or composition For example, Caco-2 plates prepared as described above were removed from the incubator. Monolayers were washed twice with pre-warmed HBSS (25 mM HEPES, pH 7.4), then the plates were incubated at 37° C. for 30 minutes. To determine the rate of drug transport in the apical to basolateral direction, 108 μL of the working solution was added to the Transwell insert (apical compartment), and 8 μL sample was immediately transferred from the apical compartment to 72 μL transport buffer and 240 μL of acetonitrile containing IS (100 nM alprazolam, 200 nM caffeine and 100 nM tolbutamide) in a new 96-well plate as the initial donor sample (A-B). The samples were then vortexed at 1000 rpm for 10 minutes. The wells in the receiver plate (basolateral compartment) were filled with 300 μL of transport buffer. To determine the rate of drug transport in the basolateral to apical direction, 308 μL of the working solution were added to the receiver plate wells (basolateral compartment), and 8 μL sample was immediately transferred from the basolateral compartment to 72 μL transport buffer and 240 μL of acetonitrile containing IS (100 nM alprazolam, 200 nM caffeine and 100 nM tolbutamide) into a new 96-well plate as the initial donor sample (B-A), then Vortexed at 1000 rpm for 10 minutes. The Transwell insert (apical compartment) was filled with 100 μL of transport buffer. […]

SMILES | efflux ratio at 2 h, 10 µM
CCC(CC)n1cc(C(=O)O)c(=O)c2c(C)c(F)c(NC3CCCCC3)cc21 [Compound I-3] | 0.27
CCn1cc(C(=O)O)c(=O)c2c(N)c(F)c(NC3CCCCC3)cc21 [Compound I-7] | 0.32
CCn1cc(C(=O)O)c(=O)c2c(N)c(F)c(NC3CC3)cc21 [Compound I-15] | 0.48
CCn1cc(C(=O)O)c(=O)c2c(N)c(F)c(Nc3ccccc3)cc21 [Compound I-16] | 0.6
CCn1cc(C(=O)O)c(=O)c2c(N)c(F)c(NCc3ccccc3)cc21 [Compound I-17] | 0.45
CCn1cc(C(=O)O)c(=O)c2c(N)c(F)c(NCCc3ccccc3)cc21 [Compound I-18] | 0.66
CCn1cc(C(=O)O)c(=O)c2c(N)c(F)c(NCCCc3ccccc3)cc21 [Compound I-19] | 0.38
CCn1cc(C(=O)O)c(=O)c2c(N)cc(NCCCc3ccccc3)cc21 [Compound I-57] | 0.4
CCn1cc(C(=O)O)c(=O)c2c(N)c(F)c(N[C@H]3C[C@H](c4ccccc4)C3)cc21 [Compound I-60] | 0.5
CCn1cc(C(=O)O)c(=O)c2c(N)c(F)c(N[C@H]3C[C@@H](c4ccccc4)C3)cc21 [Compound I-61] | 0.85
CCn1cc(C(N)=O)c(=O)c2c(N)c(F)c(NCCc3ccccc3)cc21 [Compound I-66] | 58
CCn1cc(C#N)c(=O)c2c(N)c(F)c(NCCc3ccccc3)cc21 [Compound I-67] | 0.24
CCn1cc(-c2nnn[nH]2)c(=O)c2c(N)c(F)c(NCCc3ccccc3)cc21 [Compound I-68] | 0.63
CCn1cc(C(=O)O)c(=O)c2c(N)c(F)c(NC3CN(c4ccccc4)C3)cc21 [Compound I-69] | 0.78

same assay, conditions: human, pH 7.4; Caco-2, apical to basolateral, 10 μM, 2 hours; approximate values

SMILES | Papp A→B at 2 h, 10 μM [×10⁻⁶ cm/s]
CCC(CC)n1cc(C(=O)O)c(=O)c2c(C)c(F)c(NC3CCCCC3)cc21 [Compound I-3] | 3.3
CCn1cc(C(=O)O)c(=O)c2c(N)c(F)c(NC3CCCCC3)cc21 [Compound I-7] | 13
CCn1cc(C(=O)O)c(=O)c2c(N)c(F)c(NC3CC3)cc21 [Compound I-15] | 38
CCn1cc(C(=O)O)c(=O)c2c(N)c(F)c(Nc3ccccc3)cc21 [Compound I-16] | 17
CCn1cc(C(=O)O)c(=O)c2c(N)c(F)c(NCc3ccccc3)cc21 [Compound I-17] | 23
CCn1cc(C(=O)O)c(=O)c2c(N)c(F)c(NCCc3ccccc3)cc21 [Compound I-18] | 11
CCn1cc(C(=O)O)c(=O)c2c(N)c(F)c(NCCCc3ccccc3)cc21 [Compound I-19] | 5.9
CCn1cc(C(=O)O)c(=O)c2c(N)cc(NCCCc3ccccc3)cc21 [Compound I-57] | 7.1
CCn1cc(C(=O)O)c(=O)c2c(N)c(F)c(N[C@H]3C[C@H](c4ccccc4)C3)cc21 [Compound I-60] | 0.32
CCn1cc(C(=O)O)c(=O)c2c(N)c(F)c(N[C@H]3C[C@@H](c4ccccc4)C3)cc21 [Compound I-61] | 0.11
CCn1cc(C(N)=O)c(=O)c2c(N)c(F)c(NCCc3ccccc3)cc21 [Compound I-66] | 1.8
CCn1cc(C#N)c(=O)c2c(N)c(F)c(NCCc3ccccc3)cc21 [Compound I-67] | 2.2
CCn1cc(-c2nnn[nH]2)c(=O)c2c(N)c(F)c(NCCc3ccccc3)cc21 [Compound I-68] | 0.06
CCn1cc(C(=O)O)c(=O)c2c(N)c(F)c(NC3CN(c4ccccc4)C3)cc21 [Compound I-69] | 4.6

target: Foxo-1 (Homo sapiens, UniProt Q12778); test: not given; conditions: from Molecular Pharmacology (2010), 78(5), 961-970; approximate values; read-out: Potency Foxo-1; cited from earlier work
Sequence (Q12778 whole entry, species assumed): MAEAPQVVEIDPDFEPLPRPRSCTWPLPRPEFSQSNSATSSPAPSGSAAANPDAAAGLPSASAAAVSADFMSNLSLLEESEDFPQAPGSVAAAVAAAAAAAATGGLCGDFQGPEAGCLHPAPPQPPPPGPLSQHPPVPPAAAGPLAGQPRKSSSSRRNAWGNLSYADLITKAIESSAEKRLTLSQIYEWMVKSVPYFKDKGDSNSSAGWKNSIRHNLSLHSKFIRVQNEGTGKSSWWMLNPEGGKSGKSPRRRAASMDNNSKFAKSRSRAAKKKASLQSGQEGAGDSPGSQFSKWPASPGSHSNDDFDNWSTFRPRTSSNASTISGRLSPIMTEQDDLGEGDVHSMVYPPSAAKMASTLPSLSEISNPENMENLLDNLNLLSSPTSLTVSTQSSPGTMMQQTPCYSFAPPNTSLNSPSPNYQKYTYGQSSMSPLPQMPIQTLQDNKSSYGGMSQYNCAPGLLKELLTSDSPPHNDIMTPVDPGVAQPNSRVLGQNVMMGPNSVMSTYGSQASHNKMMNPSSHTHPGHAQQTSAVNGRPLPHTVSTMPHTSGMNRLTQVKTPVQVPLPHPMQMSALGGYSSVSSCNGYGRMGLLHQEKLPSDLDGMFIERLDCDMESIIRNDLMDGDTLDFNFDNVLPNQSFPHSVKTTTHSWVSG

SMILES | IC50 [nM]
CCC(CC)n1cc(C(=O)O)c(=O)c2c(C)c(F)c(NC3CCCCC3)cc21 [Compound I-3] | < 100
CCn1cc(C(=O)O)c(=O)c2c(N)c(F)c(NC3CCCCC3)cc21 [Compound I-7] | < 100
